Consider 19 molecules from PubChem BioAssay AID330 (DTP/NCI, 2004).

For the test, the system named is P388 leukemia ip, CD2F1 mice, survival T/C. Kind of test: NCI In Vivo Anticancer Drug Screen. Data for tumor model P388 Leukemia (intraperitoneal) in CD2F1 (CDF1) mice. The conditions noted are these: endpoint: median survival time, higher = longer survival. Summed up:
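Mice carrying the transplanted tumor received test compound or vehicle. Survival was recorded in each group, and the value is the treated-group measurement divided by that of the vehicle-treated control group.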

The mark [1] stands for this setting: dose: 3.13 mg/kg/injection, schedule: Q01DX009 (ip), vehicle: saline with Tween-80.
Setting [2] is: dose: 6.25 mg/kg/injection, schedule: Q01DX009 (ip), vehicle: saline with Tween-80.
The mark [3] stands for this setting: dose: 6.25 mg/kg/injection, schedule: Q01DX009 (ip), vehicle: saline.
Where [4] appears, read: dose: 12.5 mg/kg/injection, schedule: Q01DX009 (ip), vehicle: saline with Tween-80.
[5] abbreviates: dose: 12.5 mg/kg/injection, schedule: Q01DX009 (ip), vehicle: saline.
[6] abbreviates: dose: 100.0 mg/kg/injection, schedule: Q01DX001 (ip), vehicle: saline with Tween-80.
The mark [7] stands for this setting: dose: 200.0 mg/kg/injection, schedule: Q01DX001 (ip), vehicle: saline with Tween-80.
The mark [8] stands for this setting: dose: 50.0 mg/kg/injection, schedule: Q01DX009 (ip), vehicle: saline.
The mark [9] stands for this setting: dose: 50.0 mg/kg/injection, schedule: Q01DX005 (ip), vehicle: Klucel (hydroxypropylcellulose) (HPC).
Where [10] appears, read: dose: 100.0 mg/kg/injection, schedule: Q01DX005 (ip), vehicle: Klucel (hydroxypropylcellulose) (HPC).
Setting [11] is: dose: 200.0 mg/kg/injection, schedule: Q01DX005 (ip), vehicle: Klucel (hydroxypropylcellulose) (HPC).

“And” between values parts separate entries of the source, which are not always exact repeats. Equal values may be shown once. Toxic doses and inconclusive results are not listed.

On to `C[N+](C)(C)Cc1ccccc1`, for which the T/C was 100 % of control under setting [1]; 99 % of control (dose: 3.13 mg/kg/injection, schedule: Q01DX009 (ip), vehicle: saline); 95 % of control (dose: 6.25 mg/kg/injection, schedule: Q01DX009 (ip), vehicle: Klucel (hydroxypropylcellulose) (HPC)); 100 % of control under setting [2]; 94 % of control under setting [3]; 93 % of control (dose: 12.5 mg/kg/injection, schedule: Q01DX009 (ip), vehicle: Klucel (hydroxypropylcellulose) (HPC)). Besides, the T/C under setting [4] was 100 % of control; the T/C under setting [5] is 96 % of control; the T/C (dose: 25.0 mg/kg/injection, schedule: Q01DX009 (ip), vehicle: Klucel (hydroxypropylcellulose) (HPC)) is 99 % of control.

With `CC(C)=CCCC(C)(OC1OC(COC2OC(CO)C(O)C(O)C2O)C(O)C(O)C1O)C1CCC2(C)C1C(O)CC1C3(C)CCC(OC4OC(CO)C(O)C(O)C4OC4OC(CO)C(O)C(O)C4O)C(C)(C)C3CCC12C` (stereo not given), the T/C (dose: 2.0 mg/kg/injection, schedule: Q01DX009 (ip), vehicle: Klucel (hydroxypropylcellulose) (HPC)) is 102 % of control; the T/C (dose: 4.0 mg/kg/injection, schedule: Q01DX009 (ip), vehicle: Klucel (hydroxypropylcellulose) (HPC)) is 95 % of control; the T/C (dose: 8.0 mg/kg/injection, schedule: Q01DX009 (ip), vehicle: Klucel (hydroxypropylcellulose) (HPC)) is 98 % of control; the T/C (dose: 16.0 mg/kg/injection, schedule: Q01DX009 (ip), vehicle: Klucel (hydroxypropylcellulose) (HPC)) is 93 % of control; the T/C (dose: 32.0 mg/kg/injection, schedule: Q01DX009 (ip), vehicle: Klucel (hydroxypropylcellulose) (HPC)) is 88 % of control.

Take `CN(C)C1=CC(=O)c2ccccc2C12CO2` (stereo not given): the T/C by setting is: under setting [6], 106 % of control; under setting [7], 100 % of control.

For `O=C1CSC(=S)N1/N=C/c1ccc(Cl)c(Cl)c1`, the T/C is 100 % of control (dose: 1.56 mg/kg/injection, schedule: Q01DX009 (ip), vehicle: saline with Tween-80); 110 % of control under setting [1]; 120 % of control under setting [2].

In the case of `CCOC(=O)/C(C#N)=N/O`, the T/C under setting [3] is 104 % of control and 114 % of control and 90 % of control; the T/C under setting [5] was 102 % of control and 104 % of control and 95 % of control; the T/C (dose: 25.0 mg/kg/injection, schedule: Q01DX009 (ip), vehicle: saline) is 111 % of control and 97 % of control; the T/C under setting [8] is 101 % of control and 104 % of control and 107 % of control.

Regarding `CCOC(=O)N(C)C(=O)NC`, the T/C is 103 % of control and 105 % of control under setting [8]; 103 % of control and 109 % of control (dose: 100.0 mg/kg/injection, schedule: Q01DX009 (ip), vehicle: saline); 100 % of control and 104 % of control (dose: 200.0 mg/kg/injection, schedule: Q01DX009 (ip), vehicle: saline).

Take `Nc1cc2c3cccnc3ccc2c2ncccc12`: the T/C was 94 % of control under setting [6]; 89 % of control under setting [7]; 95 % of control (dose: 400.0 mg/kg/injection, schedule: Q01DX001 (ip), vehicle: saline with Tween-80).

Consider `COc1cccc2c1C(=O)c1c(O)c(CCl)cc(O)c1C2=O`, for which the T/C is 99 % of control (dose: 3.75 mg/kg/injection, schedule: Q01DX005 (ip), vehicle: saline with Tween-80); 92 % of control (dose: 7.5 mg/kg/injection, schedule: Q01DX005 (ip), vehicle: saline with Tween-80); 89 % of control (dose: 15.0 mg/kg/injection, schedule: Q01DX005 (ip), vehicle: saline with Tween-80).

For the molecule `Clc1ccc2nc(CBr)cnc2c1`, the T/C under setting [2] is 104 % of control; the T/C under setting [4] is 104 % of control; the T/C (dose: 25.0 mg/kg/injection, schedule: Q01DX009 (ip), vehicle: saline with Tween-80) is 100 % of control.

With `CCSCCNC(=O)[C@@]1(O)[C@H](O)[C@]2(CC)C=CCN3CC[C@@]4(c5cc([C@@]6(OC(C)=O)C[C@H]7C=C(CC)CN(CCc8c6[nH]c6ccccc86)C7)c(OC)cc5N(C)[C@@H]14)[C@@H]32`, the T/C (dose: 0.5 mg/kg/injection, schedule: Q01DX001 (ip), vehicle: water) is 118 % of control; the T/C (dose: 1.0 mg/kg/injection, schedule: Q01DX001 (ip), vehicle: water) is 118 % of control; the T/C (dose: 4.0 mg/kg/injection, schedule: Q01DX001 (ip), vehicle: water) is 165 % of control; the T/C (dose: 8.0 mg/kg/injection, schedule: Q01DX001 (ip), vehicle: water) was 174 % of control.

On to `Nc1nc(Nc2ccccc2)n[nH]1`, for which the T/C was 102 % of control (dose: 50.0 mg/kg/injection, schedule: Q01DX009 (ip), vehicle: Klucel (hydroxypropylcellulose) (HPC)); 102 % of control (dose: 100.0 mg/kg/injection, schedule: Q01DX009 (ip), vehicle: Klucel (hydroxypropylcellulose) (HPC)); 94 % of control (dose: 200.0 mg/kg/injection, schedule: Q01DX009 (ip), vehicle: Klucel (hydroxypropylcellulose) (HPC)).

Turning to `Cn1ccc2c3c(ccc21)C(N1CCOCC1)=CS(=O)(=O)O3`, the T/C by setting is: under setting [9], 104 % of control; under setting [10], 98 % of control; under setting [11], 100 % of control.

`O=C1C2CC=CCC2C(=O)N1SC(Cl)(Cl)Cl` (stereo not given): the T/C reads like this: under setting [1], 121 % of control; under setting [2], 121 % of control; under setting [4], 120 % of control.

Turning to `O=[N+]([O-])/C=C/c1cc2c(ccc3ccccc32)[nH]1`, the T/C is 91 % of control (dose: 50.0 mg/kg/injection, schedule: Q01DX005 (ip), vehicle: saline with Tween-80); 93 % of control (dose: 100.0 mg/kg/injection, schedule: Q01DX005 (ip), vehicle: saline with Tween-80); 99 % of control (dose: 200.0 mg/kg/injection, schedule: Q01DX005 (ip), vehicle: saline with Tween-80).

Turning to `CCCn1c2nc(=O)[nH]c(=O)c-2cc2ccccc21`, the T/C is 105 % of control (dose: 10.0 mg/kg/injection, schedule: Q01DX009 (ip), vehicle: saline with Tween-80); 103 % of control (dose: 20.0 mg/kg/injection, schedule: Q01DX009 (ip), vehicle: saline with Tween-80); 113 % of control (dose: 40.0 mg/kg/injection, schedule: Q01DX009 (ip), vehicle: saline with Tween-80).

Consider `CCO/C=C1/N=C(c2cc([N+](=O)[O-])cc([N+](=O)[O-])c2C)OC1=O`, for which the T/C (dose: 60.0 mg/kg/injection, schedule: Q01DX005 (ip), vehicle: saline + Tween-80 + alcohol) was 93 % of control; the T/C (dose: 120.0 mg/kg/injection, schedule: Q01DX005 (ip), vehicle: saline + Tween-80 + alcohol) is 94 % of control; the T/C (dose: 240.0 mg/kg/injection, schedule: Q01DX005 (ip), vehicle: saline + Tween-80 + alcohol) was 88 % of control.

Regarding `Cc1ccc(N2C(=S)N(c3cccc(Cl)c3Cl)C(=O)C(N=Nc3cccc(Cl)c3Cl)C2O)cc1` (stereo not given), the T/C was 97 % of control (dose: 100.0 mg/kg/injection, schedule: Q01DX001 (ip), vehicle: Klucel (hydroxypropylcellulose) (HPC)); 98 % of control (dose: 200.0 mg/kg/injection, schedule: Q01DX001 (ip), vehicle: Klucel (hydroxypropylcellulose) (HPC)); 97 % of control (dose: 400.0 mg/kg/injection, schedule: Q01DX001 (ip), vehicle: Klucel (hydroxypropylcellulose) (HPC)).

Turning to `CCCCOc1ccc(C(=O)N/N=C(\C)[C@]2(O)Cc3c(O)c4c(c(O)c3[C@@H](OC3CC(N)C(O)C(C)O3)C2)C(=O)c2c(OC)cccc2C4=O)cc1` (stereo not given in full), the T/C was 115 % of control (dose: 0.12 mg/kg/injection, schedule: Q01DX009 (ip), vehicle: water); 150 % of control and 151 % of control (dose: 0.5 mg/kg/injection, schedule: Q01DX009 (ip), vehicle: water); 152 % of control and 160 % of control (dose: 1.0 mg/kg/injection, schedule: Q01DX009 (ip), vehicle: water); 160 % of control and 179 % of control (dose: 2.0 mg/kg/injection, schedule: Q01DX009 (ip), vehicle: water); 153 % of control (dose: 5.0 mg/kg/injection, schedule: Q01DX001 (ip), vehicle: water); 106 % of control (dose: 20.0 mg/kg/injection, schedule: Q01DX001 (ip), vehicle: water).

Take `NC(CCN[N+](=O)[O-])C(=O)O` (stereo not given): the T/C (dose: 25.0 mg/kg/injection, schedule: Q01DX005 (ip), vehicle: Klucel (hydroxypropylcellulose) (HPC)) is 103 % of control; the T/C under setting [9] is 97 % of control; the T/C under setting [10] was 96 % of control; the T/C under setting [11] was 97 % of control.
